Laboratory results reported in patent publication US20250231157A1, “METHOD FOR DETERMINING THE PARTITION OF NAPHTHENIC ACIDS FROM A PRODUCTION WATER MIMICKING SYSTEM AND MIMICKING SYSTEM” (PETRÓLEO BRASILEIRO S.A. – PETROBRAS, priority 2023, published 2025).
“And” between values parts separate entries of the source, which are not always exact repeats. Identical values can stand only once.

Key:
[1] = Partition equilibrium under the influence of salinity (NaCl), glass reactor, neutralization titration; format: physicochemical; details: Salinity 0 (%, m · m^−1) NaCl
[2] = Partition equilibrium in the presence of surfactants (TBA, CTA, TMA); format: physicochemical
From the text: The presence of chemical compounds usually added in the chain of unit operations of oil extraction and production, such as demulsifiers and surfactants, can affect the partition equilibrium of species in this water/oil system. In order to understand the extent of this effect, as well as discern the relevance of the chemical structure on this effect, the following items were chosen: • Dissolvan 961 (Clariant), composed of oil hydrocarbons (CAS 918-811-1) and ethanol (CAS 64-17-5); • Dissolvan 974 (Clariant), composed of EO-PO block polymer poly adducts and Bisphenol-A-diglycidyl ether (CAS 68123-18-2) and ethanol (CAS 64-17-5); • Tetrabutylammonium chloride (CAS 1112-67-0), 97% purity; • Cetyltrimethylammonium chloride (CAS 112-02-7), 25% in water; and • Trimethylammonium chloride (CAS 593-81-7), 98% purity.
For this study, the experiments (in triplicate) used between 100.0 and 1000.0 mg·L^−1 of each compound, comparing the results with control tests (absence of the component), all with constant salinity at 3.5% (m·v^−1). Finally, neutralization titration with a standardized NaOH titrant solution was used to determine the effect on the partition equilibrium for four acidic species (the same as in the other examples, except for dicyclohexylacetic acid).
Considering the study with surfactants, the (individual) addition of three species to the control system was evaluated (tetrabutylammonium chloride (TBA), tetramethylammonium chloride (TMA) and cetyltrimethylammonium chloride (CTA)). For this purpose, the surfactants have distinct chemical structures, namely the size of the side chain, and their eventual effect on the partition equilibrium of the acidic species was evaluated.

[3] = Partition equilibrium (migration to aqueous phase) heptol/water under pressure and temperature, central composite design, potentiometric titration; format: physicochemical; details: for Migration, Predicted: model value
Description: Three multivariate experimental designs (central composite designs) were performed in which the variables pressure (up to 1 MPa) and temperature (between 25° C. and 80° C.) were considered independent variables, with the migration of three acidic species as the response factor: benzoic, pentanoic and cyclohexanepentanoic acid. For this purpose, 5 levels were defined and gave rise to 10 experiments for each acidic species (Table 4), added to two control experiments (with higher pressure and temperature, as well as in the absence of pressure and at room temperature).
The experiments were performed with constant salinity of 3.5% (m·v^−1), constant heptol fraction (70:30, for heptane and toluene), and acidic species concentration of 0.03 M for benzoic and pentanoic acid, and 0.01 M for cyclohexanepentanoic acid. The results were evaluated with 95% confidence, using a response surface to estimate the maximum observable effect in each case, provided that the mathematical correlation was equal to or greater than R^2: 0.75.

[4] = Partition equilibrium in reactor pressurized with CO2, in presence and absence of alkalinity (NaHCO3, Na2CO3), back titration
Description: In the initial tests, 100 mL of heptol and 300 mL of water (with or without salinity) were used, with the addition of acidic species in the organic phase, in order to verify migration to the aqueous phase. As a rule, the system was kept under agitation at 500 rpm for 8 min, followed by rest for 10 min and, finally, collection of 50.0 mL aliquots of the aqueous phase for titrimetric analysis.
A 316 stainless steel alloy reactor (Parr®) (capacity for 600 mL and operational up to 20 MPa pressure) was used. For this purpose, a temperature range between 25° C. and 80° C. and pressure between 0.1 MPa and 1.0 MPa were used, and the reactor was pressurized with CO2. Thus, the results were compared (in terms of migration of the acidic species (%, mol) by means of back titrations) and the influence of pressure and temperature on the partition was estimated, as well as possible synergistic effects with the sources of alkalinity added to the aqueous phase.

[5] = Control experiments: availability of the species in alkaline aqueous medium without using the reactor; format: physicochemical; details: acid solubilized directly in aqueous phase, no reactor
Description: Previously, the back titration procedure was internalized and optimized (Example 1), ensuring that the reproducibility of the measurements was adequate (standard deviation values below 10%, for example) and that the recoveries were close to what was expected based on the purity of the reagents (i.e., close to or above 90%). […] Control experiments were performed (measuring the availability of the species in an aqueous medium, without using the reactor) by solubilizing the organic acid directly in the aqueous phase and titrating a 10.0 mL aliquot; the same way, experiments were performed in the reactor based on the standardization of heptol and salinity already discussed (3.5%).

[6] = 52 °C, 0.5 MPa (experiments 9 and 10)

In the case of `CCCCC(=O)O` [Pentanoic Acid, pentanoic acid], the Migration [1] is reported as 76.7 %, mol, the Migration ([2]; Absence of surfactant, salinity 3.5%) is reported as 77.0 %, mol and the Migration ([2]; CTA100 (cetyltrimethylammonium chloride 100 mg · L^−1)) is reported as 76.0 %, mol. The Migration ([2]; CTA1000 (1000 mg · L^−1)) was 85.0 %, mol, the Migration ([2]; TBA100 (tetrabutylammonium chloride 100 mg · L^−1)) was 76.2 %, mol and the Migration ([2]; TBA1000 (1000 mg · L^−1)) was 73.3 %, mol. The Migration ([2]; TMA100 (trimethylammonium chloride 100 mg · L^−1)) was 83.2 %, mol, the Migration ([2]; TMA1000 (1000 mg · L^−1)) was 83.5 %, mol and the “Increase in migration to the aqueous phase with CTA” value ([2]; surfactant CTA, 1000 mg·L^−1) was roughly 10%. For the same molecule, the “Effect of TBA on migration to the aqueous phase” value ([2]; surfactant TBA, different concentrations) was “no significant effect”, the “Increase in affinity for the hydrophilic phase with TMA” value ([2]; surfactant TMA, from 100 mg·L^−1) was “approximately 10%” and the “Migration, Measured” value ([3]; 20 °C, 0.1 MPa (experiment 12, control)) was 86.6 %, mol. For the same molecule, the “Migration, Increment (related to control)” value (from here on “Migration, Increment”) ([3]; 25 °C, 0.5 MPa (experiment 5)) was −10.8 %, mol, the “Migration, Measured” value ([3]; 25 °C, 0.5 MPa (experiment 5)) was 77.3 %, mol and the “Migration, Increment” value ([3]; 38 °C, 0.25 MPa (experiment 1)) was −13.3 %, mol. The “Migration, Measured” value ([3]; 38 °C, 0.25 MPa (experiment 1), heptol 70:30, 3.5% salinity) was 75.1 %, mol, the “Migration, Increment” value ([3]; 38 °C, 0.75 MPa (experiment 3)) was −12.2 %, mol and the “Migration, Measured” value ([3]; 38 °C, 0.75 MPa (experiment 3)) was 76.1 %, mol. For the same molecule, the “Migration, Increment” value ([3]; 52 °C, 0.1 MPa (experiment 7)) was −1.5 %, mol, the “Migration, Measured” value ([3]; 52 °C, 0.1 MPa (experiment 7)) was 85.3 %, mol and the “Migration, Increment” value [3, 6] was 2.2 %, mol and 1.8 %, mol. For the same molecule, the “Migration, Measured” value ([3]; 52 °C, 0.5 MPa (experiments 9 and 10, centre point)) was 88.5 %, mol and 88.2 %, mol, the “Migration, Increment” value ([3]; 52 °C, 1 MPa (experiment 8)) was 3.1 %, mol and the “Migration, Measured” value ([3]; 52 °C, 1 MPa (experiment 8)) was 89.4 %, mol. The “Migration, Increment” value ([3]; 66 °C, 0.25 MPa (experiment 2)) was −4.1 %, mol, the “Migration, Measured” value ([3]; 66 °C, 0.25 MPa (experiment 2)) was 83.1 %, mol and the “Migration, Increment” value ([3]; 66 °C, 0.75 MPa (experiment 4)) was −5.2 %, mol. For the same molecule, the “Migration, Measured” value ([3]; 66 °C, 0.75 MPa (experiment 4)) was 82.2 %, mol, the “Migration, Increment” value ([3]; 80 °C, 0.5 MPa (experiment 6)) was 0.5 %, mol and the “Migration, Measured” value ([3]; 80 °C, 0.5 MPa (experiment 6)) was 87.1 %, mol. For the same molecule, the “Migration, Increment” value ([3]; 80 °C, 1 MPa (experiment 11)) was 2.5 %, mol, the “Migration, Measured” value ([3]; 80 °C, 1 MPa (experiment 11, control)) was 88.8 %, mol and the “Migration, Predicted” value ([3]; 25 °C, 0.5 MPa (experiment 5)) was 74.2 %, mol. The “Migration, Predicted” value ([3]; 38 °C, 0.25 MPa (experiment 1)) was 79.9 %, mol, the “Migration, Predicted” value ([3]; 38 °C, 0.75 MPa (experiment 3)) was 82.2 %, mol and the “Migration, Predicted” value ([3]; 52 °C, 0.1 MPa (experiment 7)) was 83.6 %, mol. For the same molecule, the “Migration, Predicted” value [3, 6] was 85.4 %, mol, the “Migration, Predicted” value ([3]; 52 °C, 1 MPa (experiment 8)) was 86.3 %, mol and the “Migration, Predicted” value ([3]; 66 °C, 0.25 MPa (experiment 2)) was 86.5 %, mol. The “Migration, Predicted” value ([3]; 66 °C, 0.75 MPa (experiment 4)) was 86.9 %, mol, the “Migration, Predicted” value ([3]; 80 °C, 0.5 MPa (experiment 6)) was 85.5 %, mol and the “Migration, Predicted” value ([3]; 80 °C, 1 MPa (experiment 11)) was 85.4 %, mol. The “Decrease in the tendency to migrate relative to control, maximum over the design” value ([3]; pressure up to 1 MPa, 25-80 °C) was “up to 13.3 % mol”, the “Increase in migration relative to control, maximum over the design” value ([3]; pressure up to 1 MPa, 25-80 °C) was “up to 3.1 % mol” and the Migration ([4]; 25° C. and 1.0 MPa CO2, no alkalinity) was 100 % mol. The Migration ([4]; 80° C. and 1.0 MPa CO2, no alkalinity) was 82.4 % mol, the Migration ([4]; Na2CO3 + NaHCO3, 25° C. and 0.1 MPa) was 61.3 % mol and the Migration ([4]; Na2CO3 + NaHCO3, 25° C. and 1.0 MPa CO2) was 100 % mol. For the same molecule, the Migration ([4]; Na2CO3 + NaHCO3, 80° C. and 1.0 MPa CO2) was 79.9 % mol, the Migration ([4]; NaHCO3, 25° C. and 0.1 MPa) was 69.2 % mol and the Migration ([4]; NaHCO3, 25° C. and 1.0 MPa CO2) was 100 % mol. The Migration ([4]; NaHCO3, 80° C. and 1.0 MPa CO2) was 96.3 % mol, the Migration ([4]; Reference (heptol + 3.5% NaCl), no alkalinity) was 77 % mol and the “Availability (reference value)” value ([5]; Na2CO3 + NaHCO3 (3.48×10^−5 mol)) was 66.0 % mol. For the same molecule, the “Availability (reference value)” value ([5]; NaHCO3 (3.45×10^−5 mol)) was 90.7 % mol.
